Activity calls are given as the source filed them. The rule behind the calls is not given here.
Legend:
[1] = molecular target: T1, LIM domain kinase 1 (Homo sapiens, UniProt P53667); assay: Inhibition of LIMK1
Target sequence in this assay (P53667 whole entry, the tested form may be a part): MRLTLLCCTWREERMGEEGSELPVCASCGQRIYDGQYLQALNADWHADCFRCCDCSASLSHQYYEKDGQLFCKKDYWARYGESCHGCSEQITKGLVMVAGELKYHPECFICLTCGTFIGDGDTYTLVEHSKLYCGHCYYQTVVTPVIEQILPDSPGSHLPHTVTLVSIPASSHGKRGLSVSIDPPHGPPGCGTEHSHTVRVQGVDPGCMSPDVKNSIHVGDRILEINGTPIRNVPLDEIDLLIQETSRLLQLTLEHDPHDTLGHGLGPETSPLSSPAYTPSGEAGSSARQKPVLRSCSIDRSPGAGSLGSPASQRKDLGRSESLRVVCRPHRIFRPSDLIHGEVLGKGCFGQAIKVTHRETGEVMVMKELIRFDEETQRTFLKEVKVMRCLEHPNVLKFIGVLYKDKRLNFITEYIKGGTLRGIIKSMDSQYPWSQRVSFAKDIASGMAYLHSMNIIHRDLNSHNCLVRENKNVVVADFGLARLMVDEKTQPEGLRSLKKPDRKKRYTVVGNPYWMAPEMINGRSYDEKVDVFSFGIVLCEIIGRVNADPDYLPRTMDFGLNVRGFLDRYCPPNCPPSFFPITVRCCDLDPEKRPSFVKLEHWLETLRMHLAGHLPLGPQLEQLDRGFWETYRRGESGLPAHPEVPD

[2] = molecular target: T2, LIM domain kinase 2 (Homo sapiens, UniProt P53671); assay: Inhibition of LIMK2
Target sequence in this assay (P53671 whole entry, the tested form may be a part): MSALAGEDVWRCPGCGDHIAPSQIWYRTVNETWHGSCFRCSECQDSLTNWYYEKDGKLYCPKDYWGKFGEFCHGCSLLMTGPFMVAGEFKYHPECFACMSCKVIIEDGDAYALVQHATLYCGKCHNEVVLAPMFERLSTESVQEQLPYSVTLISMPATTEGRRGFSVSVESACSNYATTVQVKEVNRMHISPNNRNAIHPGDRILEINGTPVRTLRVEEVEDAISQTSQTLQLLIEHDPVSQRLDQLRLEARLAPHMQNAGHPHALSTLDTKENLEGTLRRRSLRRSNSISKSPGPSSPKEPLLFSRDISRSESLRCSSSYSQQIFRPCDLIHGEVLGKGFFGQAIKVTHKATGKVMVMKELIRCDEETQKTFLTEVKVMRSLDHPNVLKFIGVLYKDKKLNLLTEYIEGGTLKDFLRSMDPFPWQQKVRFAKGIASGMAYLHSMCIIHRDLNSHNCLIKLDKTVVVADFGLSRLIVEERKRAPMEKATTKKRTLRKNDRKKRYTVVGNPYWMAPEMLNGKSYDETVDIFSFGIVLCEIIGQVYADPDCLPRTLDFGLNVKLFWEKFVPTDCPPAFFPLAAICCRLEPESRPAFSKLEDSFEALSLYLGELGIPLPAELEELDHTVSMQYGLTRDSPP

[3] = molecular target: Dual specificity testis-specific protein kinase 1 (Homo sapiens, UniProt Q15569); assay: Inhibition of TESK1
[4] = molecular target: Dual specificity testis-specific protein kinase 2 (Homo sapiens, UniProt Q96S53); assay: Inhibition of TESK2
Chain of Dual specificity testis-specific protein kinase 2 (Q96S53 whole entry): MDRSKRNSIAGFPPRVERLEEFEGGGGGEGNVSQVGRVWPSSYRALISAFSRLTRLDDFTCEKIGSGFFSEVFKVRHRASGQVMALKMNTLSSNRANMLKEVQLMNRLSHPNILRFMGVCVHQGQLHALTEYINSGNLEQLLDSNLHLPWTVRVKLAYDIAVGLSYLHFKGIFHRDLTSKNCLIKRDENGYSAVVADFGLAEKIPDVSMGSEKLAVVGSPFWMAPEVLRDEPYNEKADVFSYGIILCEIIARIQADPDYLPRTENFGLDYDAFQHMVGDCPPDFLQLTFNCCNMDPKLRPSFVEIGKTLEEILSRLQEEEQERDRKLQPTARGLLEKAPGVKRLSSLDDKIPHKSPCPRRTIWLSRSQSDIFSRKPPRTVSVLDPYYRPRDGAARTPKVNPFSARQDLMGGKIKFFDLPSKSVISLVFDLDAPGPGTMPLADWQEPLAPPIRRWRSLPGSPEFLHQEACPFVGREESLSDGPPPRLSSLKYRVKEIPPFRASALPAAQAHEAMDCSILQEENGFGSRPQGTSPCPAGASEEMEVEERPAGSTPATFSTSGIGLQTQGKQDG

[5] = molecular target: T3, Mitogen-activated protein kinase 14 (Homo sapiens, UniProt Q16539); assay: Inhibition of MAPK p38alpha
T3 sequence (Q16539 whole entry, the tested form may be a part): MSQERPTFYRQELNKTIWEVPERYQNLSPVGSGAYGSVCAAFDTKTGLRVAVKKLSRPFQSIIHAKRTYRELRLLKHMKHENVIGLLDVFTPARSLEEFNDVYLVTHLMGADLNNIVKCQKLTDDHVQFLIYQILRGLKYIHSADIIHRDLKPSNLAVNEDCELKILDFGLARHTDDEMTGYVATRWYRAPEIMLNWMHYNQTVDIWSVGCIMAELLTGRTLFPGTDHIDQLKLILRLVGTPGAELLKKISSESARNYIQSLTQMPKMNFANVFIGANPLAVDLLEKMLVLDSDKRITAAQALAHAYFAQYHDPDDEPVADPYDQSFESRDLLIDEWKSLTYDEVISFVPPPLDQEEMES

[6] = molecular target: T1, LIM domain kinase 1; assay: Inhibition of LIMK1-mediated cofilin Ser3 phosphorylation in human HT1080 cells; type: cell-based; conditions: HT-1080
[7] = molecular target: T2, LIM domain kinase 2; assay: Inhibition of LIMK2-mediated cofilin Ser3 phosphorylation in human HT1080 cells; type: cell-based; conditions: HT-1080
Target sequence in this assay (P53671 whole entry, looked up, the tested form may be a part): as the sequence (P53671 whole entry, the tested form may be a part) above

[8] = test system: HT-1080; assay: Cytotoxicity against human HT1080 cells assessed as inhibition of thymidine incorporation; type: cell-based
[9] = test system: HT-1080; assay: Induction of F-actin depolymerization in human HT1080 cells at 5 uM after 2 days by fluorescein-tagged phalloidin staining; type: functional, cell-based
[10] = molecular target: T4, Activin receptor type-1B (Homo sapiens) (UniProt P36896); assay: Binding affinity to human Alk4
T4 sequence (whole entry): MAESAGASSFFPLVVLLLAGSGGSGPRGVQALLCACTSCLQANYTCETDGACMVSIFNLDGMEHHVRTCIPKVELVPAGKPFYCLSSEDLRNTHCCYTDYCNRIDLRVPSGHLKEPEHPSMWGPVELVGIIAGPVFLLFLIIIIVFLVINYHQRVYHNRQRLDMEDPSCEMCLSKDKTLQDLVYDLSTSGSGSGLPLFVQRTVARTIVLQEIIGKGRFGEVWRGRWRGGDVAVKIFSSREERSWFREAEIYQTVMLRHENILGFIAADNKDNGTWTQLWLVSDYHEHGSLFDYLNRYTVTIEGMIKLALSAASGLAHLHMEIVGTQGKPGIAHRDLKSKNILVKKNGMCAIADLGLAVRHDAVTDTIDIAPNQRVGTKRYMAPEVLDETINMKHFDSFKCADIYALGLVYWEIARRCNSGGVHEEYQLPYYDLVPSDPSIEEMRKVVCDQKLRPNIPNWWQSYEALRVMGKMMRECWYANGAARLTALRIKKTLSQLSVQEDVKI

[11] = molecular target: Epithelial discoidin domain-containing receptor 1 (Homo sapiens) (UniProt Q08345); assay: Binding affinity to human DDR1
[12] = molecular target: T5, Serine/threonine-protein kinase 36 (Homo sapiens) (UniProt Q9NRP7); assay: Binding affinity to human fused kinase
T5 sequence (whole entry): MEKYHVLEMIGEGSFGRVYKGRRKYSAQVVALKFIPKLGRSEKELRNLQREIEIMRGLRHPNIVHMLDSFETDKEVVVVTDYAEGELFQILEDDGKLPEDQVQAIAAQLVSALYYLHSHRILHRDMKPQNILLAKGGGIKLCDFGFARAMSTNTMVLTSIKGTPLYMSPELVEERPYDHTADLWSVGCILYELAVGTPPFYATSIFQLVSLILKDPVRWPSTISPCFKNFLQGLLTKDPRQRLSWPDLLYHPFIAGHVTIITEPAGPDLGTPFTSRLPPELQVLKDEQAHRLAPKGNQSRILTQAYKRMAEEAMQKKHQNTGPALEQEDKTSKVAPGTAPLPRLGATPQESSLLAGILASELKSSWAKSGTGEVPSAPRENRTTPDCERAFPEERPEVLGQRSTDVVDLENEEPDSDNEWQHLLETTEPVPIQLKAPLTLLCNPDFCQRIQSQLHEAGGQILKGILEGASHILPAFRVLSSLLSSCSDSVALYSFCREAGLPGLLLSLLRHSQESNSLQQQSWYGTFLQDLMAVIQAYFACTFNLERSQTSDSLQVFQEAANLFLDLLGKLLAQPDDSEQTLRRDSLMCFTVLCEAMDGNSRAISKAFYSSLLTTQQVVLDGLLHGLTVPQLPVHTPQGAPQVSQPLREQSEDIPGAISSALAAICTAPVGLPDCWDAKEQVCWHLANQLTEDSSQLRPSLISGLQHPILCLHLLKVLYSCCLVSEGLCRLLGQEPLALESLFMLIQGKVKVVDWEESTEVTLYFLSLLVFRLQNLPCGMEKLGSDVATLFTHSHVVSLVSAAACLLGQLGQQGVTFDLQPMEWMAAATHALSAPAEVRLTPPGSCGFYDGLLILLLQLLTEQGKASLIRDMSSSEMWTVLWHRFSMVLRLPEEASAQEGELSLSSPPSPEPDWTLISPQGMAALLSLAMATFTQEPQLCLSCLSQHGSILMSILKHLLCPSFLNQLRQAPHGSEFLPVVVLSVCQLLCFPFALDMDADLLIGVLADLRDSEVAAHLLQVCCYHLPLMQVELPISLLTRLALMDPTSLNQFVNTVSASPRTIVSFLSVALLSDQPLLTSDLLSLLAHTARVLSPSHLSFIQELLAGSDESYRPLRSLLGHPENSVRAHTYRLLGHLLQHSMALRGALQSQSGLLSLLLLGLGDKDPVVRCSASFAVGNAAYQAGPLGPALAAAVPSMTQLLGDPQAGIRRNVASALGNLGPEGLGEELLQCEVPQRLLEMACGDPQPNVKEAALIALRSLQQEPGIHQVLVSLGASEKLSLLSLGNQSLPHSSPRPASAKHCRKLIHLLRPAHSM

[13] = molecular target: Mast/stem cell growth factor receptor Kit (Homo sapiens) (UniProt P10721); assay: Binding affinity to human KIT
Chain of Mast/stem cell growth factor receptor Kit (Homo sapiens) (P10721 whole entry): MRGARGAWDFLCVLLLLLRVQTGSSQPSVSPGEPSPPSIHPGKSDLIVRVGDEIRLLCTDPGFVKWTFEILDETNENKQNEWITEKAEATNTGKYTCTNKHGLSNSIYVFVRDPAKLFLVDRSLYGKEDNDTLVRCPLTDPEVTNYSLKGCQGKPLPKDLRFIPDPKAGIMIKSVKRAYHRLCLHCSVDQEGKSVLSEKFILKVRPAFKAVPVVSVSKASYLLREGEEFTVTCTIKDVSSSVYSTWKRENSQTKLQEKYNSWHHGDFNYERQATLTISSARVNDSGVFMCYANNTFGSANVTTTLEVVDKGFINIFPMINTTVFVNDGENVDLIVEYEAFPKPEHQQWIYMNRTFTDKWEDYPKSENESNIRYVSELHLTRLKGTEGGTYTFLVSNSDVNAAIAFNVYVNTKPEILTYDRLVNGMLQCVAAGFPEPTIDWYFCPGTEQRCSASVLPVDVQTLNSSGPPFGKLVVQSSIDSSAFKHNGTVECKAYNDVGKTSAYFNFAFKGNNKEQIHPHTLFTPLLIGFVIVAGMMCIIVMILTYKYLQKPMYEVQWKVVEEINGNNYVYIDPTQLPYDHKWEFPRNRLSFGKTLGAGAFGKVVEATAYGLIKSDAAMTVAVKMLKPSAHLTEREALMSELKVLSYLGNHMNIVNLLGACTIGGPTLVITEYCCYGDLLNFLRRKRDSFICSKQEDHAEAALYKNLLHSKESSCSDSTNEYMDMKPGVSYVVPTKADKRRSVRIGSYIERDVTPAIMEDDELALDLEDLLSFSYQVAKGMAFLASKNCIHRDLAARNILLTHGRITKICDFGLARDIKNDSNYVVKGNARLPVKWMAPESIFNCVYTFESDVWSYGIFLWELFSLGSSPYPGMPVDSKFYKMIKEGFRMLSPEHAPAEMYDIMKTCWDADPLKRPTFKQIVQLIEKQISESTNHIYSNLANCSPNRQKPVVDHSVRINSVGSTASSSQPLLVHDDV

[14] = test system: Mast/stem cell growth factor receptor Kit (Homo sapiens), P10721 [V559D]; assay: Binding affinity to human KIT V559D mutant
[15] = molecular target: T2, LIM domain kinase 2; assay: Binding affinity to human LIMK2
Target sequence in this assay (P53671 whole entry, looked up, the tested form may be a part): as the sequence (P53671 whole entry, the tested form may be a part) above

[16] = molecular target: T6, TGF-beta receptor type-1 (Homo sapiens) (UniProt P36897); assay: Binding affinity to human TGFBR1
T6 sequence (whole entry): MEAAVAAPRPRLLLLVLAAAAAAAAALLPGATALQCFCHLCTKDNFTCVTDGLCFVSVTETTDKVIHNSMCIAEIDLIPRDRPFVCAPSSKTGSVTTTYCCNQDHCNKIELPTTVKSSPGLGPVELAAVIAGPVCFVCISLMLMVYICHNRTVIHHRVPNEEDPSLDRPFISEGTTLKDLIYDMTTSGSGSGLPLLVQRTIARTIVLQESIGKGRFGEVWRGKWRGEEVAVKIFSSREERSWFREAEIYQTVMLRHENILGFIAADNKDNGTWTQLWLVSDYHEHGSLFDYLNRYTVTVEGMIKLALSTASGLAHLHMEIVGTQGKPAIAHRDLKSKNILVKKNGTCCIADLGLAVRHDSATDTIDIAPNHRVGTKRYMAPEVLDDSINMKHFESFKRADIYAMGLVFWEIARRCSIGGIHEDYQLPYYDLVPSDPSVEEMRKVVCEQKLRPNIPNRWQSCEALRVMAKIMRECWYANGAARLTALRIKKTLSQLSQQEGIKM

[17] = molecular target: Angiopoietin-1 receptor (Homo sapiens) (UniProt Q02763); assay: Binding affinity to human TIE2
[18] = molecular target: T3, Mitogen-activated protein kinase 14; assay: Binding affinity to human p38alpha

Chain of Dual specificity testis-specific protein kinase 1 (Q15569 whole entry): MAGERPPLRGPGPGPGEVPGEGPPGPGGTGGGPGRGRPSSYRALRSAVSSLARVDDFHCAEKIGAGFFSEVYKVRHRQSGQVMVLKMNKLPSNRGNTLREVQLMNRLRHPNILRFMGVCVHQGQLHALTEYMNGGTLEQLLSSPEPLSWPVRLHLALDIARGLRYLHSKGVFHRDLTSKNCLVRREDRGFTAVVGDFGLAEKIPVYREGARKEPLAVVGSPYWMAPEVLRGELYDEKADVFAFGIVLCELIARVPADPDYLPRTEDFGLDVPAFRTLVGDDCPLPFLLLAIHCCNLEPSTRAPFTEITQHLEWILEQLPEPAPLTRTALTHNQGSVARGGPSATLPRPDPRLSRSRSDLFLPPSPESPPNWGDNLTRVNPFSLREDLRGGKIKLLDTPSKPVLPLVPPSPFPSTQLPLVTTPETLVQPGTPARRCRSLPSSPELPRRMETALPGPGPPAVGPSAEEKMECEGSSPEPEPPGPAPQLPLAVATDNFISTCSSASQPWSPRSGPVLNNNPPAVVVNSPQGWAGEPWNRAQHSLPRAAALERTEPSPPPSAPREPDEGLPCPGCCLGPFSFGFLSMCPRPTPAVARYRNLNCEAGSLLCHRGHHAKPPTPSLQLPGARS

SMILES | IC50 [1] [nM] | IC50 [2] [nM] | IC50 [3] [nM] | IC50 [4] [nM] | also measured
COc1cc(C)c(-c2cc(-c3cnc(NC(C)=O)s3)nc(-c3cnccn3)n2)c(C)c1 | 87 | 59 | 2260 | 612 | –
CCC(CC)Oc1cc(C)c(-c2cc(-c3cnc(NC(=O)OC)s3)nc(-c3cnccn3)n2)c(C)c1 | 227 | 382 | > 30000 | > 30000 | –
CCCNc1ncc(-c2cc(-c3c(Cl)cc(OCCC)cc3Cl)nc(-c3cnccn3)n2)s1 | 115 | 141 | > 30000 | > 30000 | –
CCCNc1ncc(-c2cc(-c3ccc(OC4CCCC4)cc3Cl)nc(-c3cnccn3)n2)s1 | 210 | 50000 | > 30000 | > 30000 | –
CCCNc1ncc(-c2cc(-c3c(Cl)cc(OC4CCCC4)cc3Cl)nc(-c3cnccn3)n2)s1 | 250 | 810 | > 30000 | > 30000 | –
CCCNc1ncc(-c2cc(-c3ccc(O)cc3Cl)nc(-c3cnccn3)n2)s1 | 7730 | > 12500 | > 30000 | > 30000 | –
CCCNc1ncc(-c2cc(-c3c(Cl)cc(OC(CC)CC)cc3Cl)nc(-c3cnccn3)n2)s1 | 163 | 1530 | > 30000 | > 30000 | –
CCC(CC)Oc1cc(C)c(-c2cc(-c3cnc(NC(C)=O)s3)nc(-c3cnccn3)n2)c(C)c1 | 64 | 311 | > 30000 | 2010 | –
CCOc1ccc(-c2cc(-c3cnc(NC(C)C)s3)nc(-c3ccccn3)n2)c(Cl)c1 | 485 | – | – | – | IC50 [5]: 3940 nM
CCNC(=O)Nc1ncc(-c2cc(-c3c(C)cc(OC)cc3C)nc(-c3cnccn3)n2)s1 | 58 | 38 | 455 | 252 | inhibition [6]: Dose-dependent effect; inhibition [7]: Dose-dependent effect; IC50 [8]: > 50000 nM; Activity [9]: Active; Activity [10]: Active; Activity [11]: Active; Activity [12]: Active; Activity [13]: Active; Activity [14]: Active; Activity [15]: Active; Activity [16]: Active; Activity [17]: Active; Activity [18]: inactive
CCCNc1ncc(-c2cc(-c3ccc(OC)cc3Cl)nc(-c3cnccn3)n2)s1 | 1660 | 1230 | > 30000 | > 30000 | –
CCCNc1ncc(-c2cc(-c3cc(OCCC4CCCCC4)ccc3Cl)nc(-c3cnccn3)n2)s1 | 145 | 28 | > 30000 | > 30000 | –
CNC(=O)Nc1ncc(-c2cc(-c3c(Cl)cc(OC)cc3Cl)nc(-c3cnccn3)n2)s1 | 32 | 12 | > 30000 | > 30000 | –

Reference: ChEMBL document CHEMBL2069273, “Modulation of cofilin phosphorylation by inhibition of the Lim family kinases” (Bioorg Med Chem Lett, 2012)
